Earlier results, collected in patent US7705146B2, “Hepatitis C inhibitor peptide analogs” (Boehringer Ingelheim International GmbH, priority 2004, dated 2010).

Tested on: hepatitis C virus
Details: two day clinical trial, patients infected with the hepatitis C virus

COc1ccc2c(O[C@@H]3C[C@H]4C(=O)N[C@]5(C(=O)O)C[C@H]5/C=C\CCCCC[C@H](NC(=O)OC5CCCC5)C(=O)N4C3)cc(-c3csc(NC(C)C)n3)nc2c1 [BILN 2061]
reduction of viral loads in patients: effective in rapidly reducing viral loads
